# Data: ChEMBL document CHEMBL3885861, “Open TG-GATES”
# Organism: Rattus norvegicus
# Assay: Open TG-GATES - Regimen: Daily Repeat
# Assay type: toxicity, organism-based, Sprague-Dawley
# Design: regimen Daily Repeat, gender Male, age 6 weeks
# Conditions: in vivo, po, 0 mg/kg, route gavage, dose level Control; for APTT / Bas / Eos / Fbg / Hb / Ht / Lym / MCH / MCHC / MCV / Mono / Neu / PT / Plat / RBC / Ret / WBC: tissue Blood; for KIDNEY_L / KIDNEY_R / KIDNEY_TOTAL: tissue Kidney; for LIVER: tissue Liver; for A/G / ALP / ALT / AST / BUN / CRE / Ca / Cl / DBIL / GLC / IP / LDH / Na / PL / RALB / TBIL / TC / TG / TP / gamma-GTP: tissue Plasma
smiles,measurement,setting,value
NC(N)=Nc1nc(CSCCC(N)=NS(N)(=O)=O)cs1 [FAMOTIDINE],TERMINAL_BW,"72 h, time 3 day",227 g
same,APTT,"72 h, time 3 day",19.5 s
same,Bas,"72 h, time 3 day",0%
same,Eos,"72 h, time 3 day",1%
same,Fbg,"72 h, time 3 day",221.4 mg/dL
same,Hb,"72 h, time 3 day",13.5 g/dL
same,Ht,"72 h, time 3 day",37.4%
same,Lym,"72 h, time 3 day",73.8%
same,MCH,"72 h, time 3 day",22.4 pg
same,MCHC,"72 h, time 3 day",36.1%
same,MCV,"72 h, time 3 day",61.9 fL
same,Mono,"72 h, time 3 day",3.2%
same,Neu,"72 h, time 3 day",20.6%
same,PT,"72 h, time 3 day",11.8 s
same,Plat,"72 h, time 3 day",125.1 x10_4/uL
same,RBC,"72 h, time 3 day",604.6 x10_4/ul
same,Ret,"72 h, time 3 day",5.7%
same,WBC,"72 h, time 3 day",75.1 x10_2/uL
same,KIDNEY_L,"72 h, time 3 day",1 g
same,KIDNEY_R,"72 h, time 3 day",1 g
same,KIDNEY_TOTAL,"72 h, time 3 day",2 g
same,LIVER,"72 h, time 3 day",10.4 g
same,A/G,"72 h, time 3 day",1.5
same,ALP,"72 h, time 3 day",999.6 IU/L
same,ALT,"72 h, time 3 day",31.4 IU/L
same,AST,"72 h, time 3 day",64.2 IU/L
same,BUN,"72 h, time 3 day",13.8 mg/dL
same,CRE,"72 h, time 3 day",0.4 mg/dL
same,Ca,"72 h, time 3 day",10.7 mg/dL
same,Cl,"72 h, time 3 day",103.2 meq/L
same,DBIL,"72 h, time 3 day",0.086 mg/dL
same,GLC,"72 h, time 3 day",190.6 mg/dL
same,IP,"72 h, time 3 day",7.2 mg/dL
same,LDH,"72 h, time 3 day",194 IU/L
same,Na,"72 h, time 3 day",139.8 meq/L
same,PL,"72 h, time 3 day",139.6 mg/dL
same,RALB,"72 h, time 3 day",3.4 g/dL
same,TBIL,"72 h, time 3 day",0.1 mg/dL
same,TC,"72 h, time 3 day",76.6 mg/dL
same,TG,"72 h, time 3 day",78.4 mg/dL
same,TP,"72 h, time 3 day",5.5 g/dL
same,gamma-GTP,"72 h, time 3 day",1 IU/L
same,TERMINAL_BW,"[…], time 7 day",257.4 g
same,TERMINAL_BW,"[…], time 14 day",314.4 g
same,TERMINAL_BW,"[…], time 28 day",376 g
same,APTT,"[…], time 7 day",20.1 s
same,Bas,"[…], time 7 day",0%
same,Eos,"[…], time 7 day",0.8%
same,Fbg,"[…], time 7 day",230 mg/dL
same,Hb,"[…], time 7 day",13.7 g/dL
same,Ht,"[…], time 7 day",38.3%
same,Lym,"[…], time 7 day",80.4%
same,MCH,"[…], time 7 day",22.2 pg
same,MCHC,"[…], time 7 day",35.8%
same,MCV,"[…], time 7 day",62 fL
same,Mono,"[…], time 7 day",2.4%
same,Neu,"[…], time 7 day",14.8%
same,PT,"[…], time 7 day",11.8 s
same,Plat,"[…], time 7 day",126.2 x10_4/uL
same,RBC,"[…], time 7 day",618.2 x10_4/ul
same,Ret,"[…], time 7 day",5%
same,WBC,"[…], time 7 day",82.2 x10_2/uL
same,APTT,"[…], time 14 day",22.3 s
same,Bas,"[…], time 14 day",0%
same,Eos,"[…], time 14 day",1%
same,Fbg,"[…], time 14 day",229.4 mg/dL
same,Hb,"[…], time 14 day",14.3 g/dL
same,Ht,"[…], time 14 day",41.9%
same,Lym,"[…], time 14 day",81.8%
same,MCH,"[…], time 14 day",20.8 pg
same,MCHC,"[…], time 14 day",34.1%
same,MCV,"[…], time 14 day",60.9 fL
same,Mono,"[…], time 14 day",1.6%
same,Neu,"[…], time 14 day",14.2%
same,PT,"[…], time 14 day",12.3 s
same,Plat,"[…], time 14 day",118.4 x10_4/uL
same,RBC,"[…], time 14 day",689 x10_4/ul
same,Ret,"[…], time 14 day",4.5%
same,WBC,"[…], time 14 day",112.3 x10_2/uL
same,APTT,"[…], time 28 day",21.3 s
same,Bas,"[…], time 28 day",0%
same,Eos,"[…], time 28 day",1%
same,Fbg,"[…], time 28 day",233.6 mg/dL
same,Hb,"[…], time 28 day",15.4 g/dL
same,Ht,"[…], time 28 day",43.5%
same,Lym,"[…], time 28 day",80.8%
same,MCH,"[…], time 28 day",20 pg
same,MCHC,"[…], time 28 day",35.3%
same,MCV,"[…], time 28 day",56.6 fL
same,Mono,"[…], time 28 day",2.2%
same,Neu,"[…], time 28 day",14.6%
same,PT,"[…], time 28 day",12.2 s
same,Plat,"[…], time 28 day",98.4 x10_4/uL
same,RBC,"[…], time 28 day",769 x10_4/ul
same,Ret,"[…], time 28 day",2.3%
same,WBC,"[…], time 28 day",84.1 x10_2/uL
same,KIDNEY_L,"[…], time 7 day",1.1 g
same,KIDNEY_R,"[…], time 7 day",1.1 g
same,KIDNEY_TOTAL,"[…], time 7 day",2.2 g
same,KIDNEY_L,"[…], time 14 day",1.3 g
same,KIDNEY_R,"[…], time 14 day",1.2 g
same,KIDNEY_TOTAL,"[…], time 14 day",2.5 g
same,KIDNEY_L,"[…], time 28 day",1.4 g
same,KIDNEY_R,"[…], time 28 day",1.4 g
same,KIDNEY_TOTAL,"[…], time 28 day",2.8 g
same,LIVER,"[…], time 7 day",12.2 g
same,LIVER,"[…], time 14 day",14 g
same,LIVER,"[…], time 28 day",15.1 g
same,A/G,"[…], time 7 day",1.5
same,ALP,"[…], time 7 day",1109 IU/L
same,ALT,"[…], time 7 day",39.6 IU/L
same,AST,"[…], time 7 day",71.4 IU/L
same,BUN,"[…], time 7 day",16.6 mg/dL
same,CRE,"[…], time 7 day",0.4 mg/dL
same,Ca,"[…], time 7 day",10.7 mg/dL
same,Cl,"[…], time 7 day",102.8 meq/L
same,DBIL,"[…], time 7 day",0.094 mg/dL
same,GLC,"[…], time 7 day",200.6 mg/dL
same,IP,"[…], time 7 day",7.5 mg/dL
same,LDH,"[…], time 7 day",176.2 IU/L
same,Na,"[…], time 7 day",140.6 meq/L
same,PL,"[…], time 7 day",156.6 mg/dL
same,RALB,"[…], time 7 day",3.5 g/dL
same,TBIL,"[…], time 7 day",0.2 mg/dL
same,TC,"[…], time 7 day",78 mg/dL
same,TG,"[…], time 7 day",101.8 mg/dL
same,TP,"[…], time 7 day",5.7 g/dL
same,gamma-GTP,"[…], time 7 day",0.8 IU/L
same,A/G,"[…], time 14 day",1.5
same,ALP,"[…], time 14 day",794.6 IU/L
same,ALT,"[…], time 14 day",33.4 IU/L
same,AST,"[…], time 14 day",62 IU/L
same,BUN,"[…], time 14 day",15.8 mg/dL
same,CRE,"[…], time 14 day",0.5 mg/dL
same,Ca,"[…], time 14 day",10.8 mg/dL
same,Cl,"[…], time 14 day",103.2 meq/L
same,DBIL,"[…], time 14 day",0.096 mg/dL
same,GLC,"[…], time 14 day",208 mg/dL
same,IP,"[…], time 14 day",7.2 mg/dL
same,LDH,"[…], time 14 day",153.2 IU/L
same,Na,"[…], time 14 day",140.4 meq/L
same,PL,"[…], time 14 day",146.6 mg/dL
same,RALB,"[…], time 14 day",3.4 g/dL
same,TBIL,"[…], time 14 day",0.2 mg/dL
same,TC,"[…], time 14 day",75 mg/dL
same,TG,"[…], time 14 day",96.4 mg/dL
same,TP,"[…], time 14 day",5.7 g/dL
same,gamma-GTP,"[…], time 14 day",1.4 IU/L
same,A/G,"[…], time 28 day",1.3
same,ALP,"[…], time 28 day",664.6 IU/L
same,ALT,"[…], time 28 day",32.4 IU/L
same,AST,"[…], time 28 day",59 IU/L
same,BUN,"[…], time 28 day",18.6 mg/dL
same,CRE,"[…], time 28 day",0.6 mg/dL
same,Ca,"[…], time 28 day",10.2 mg/dL
same,Cl,"[…], time 28 day",103.6 meq/L
same,DBIL,"[…], time 28 day",0.07 mg/dL
same,GLC,"[…], time 28 day",217.4 mg/dL
same,IP,"[…], time 28 day",6.7 mg/dL
same,LDH,"[…], time 28 day",123 IU/L
same,Na,"[…], time 28 day",141 meq/L
same,PL,"[…], time 28 day",141.8 mg/dL
same,RALB,"[…], time 28 day",3.5 g/dL
same,TBIL,"[…], time 28 day",0.1 mg/dL
same,TC,"[…], time 28 day",74.6 mg/dL
same,TG,"[…], time 28 day",82.8 mg/dL
same,TP,"[…], time 28 day",6.1 g/dL
same,gamma-GTP,"[…], time 28 day",1 IU/L
